Results from publication PMC11571215, “Optimization of Antiproliferative Properties of Triimine Copper(II) Complexes” (Journal of Medicinal Chemistry, 2024).
Where two headings read alike, the source gives them in different places.

What was measured:
Assay type in all cases: cell-based, human
[1] = system: HCT116 cells (colorectal carcinoma); assay: MTS cell viability assay, HCT116 2D; conditions: for IC50: 48 h of exposure, MTS, relative IC50, mean + SEM; for SI HCT116: ratio IC50 fibroblasts / IC50 HCT116
Procedure: (§1) The antiproliferative effect of the Cu(II) complexes in tumor and healthy cell lines was assessed through the MTS assay, a colorimetric method that is widely used to evaluate cellular viability, specifically mitochondrial viability.[53],[54] Cellular viability was determined after 48 h exposure to a concentration range (0.1–50 μM) of Cu(II) complexes in three tumor cell lines. […] Additionally, the viability of healthy primary dermal fibroblasts was performed as a comparison of the complexes’ antiproliferative effects in normal cells.
(§2) Cellular viability assays were performed using HCT116, HCT116-DoxR, and A2780 cancer cell lines as well as normal human primary fibroblasts. Cells were seeded at a density of 0.75 × 10^5 cells/mL in 96-well plates and incubated at 37 °C with 5% (v/v) CO2 for 24 h. After this incubation period, the copper complexes were accurately weighed and immediately dissolved in 100% (v/v) dimethyl sulfoxide (DMSO). Subsequently, the complexes were diluted to the final concentration using a cell culture medium. The culture medium in each well was replaced with fresh medium containing varying concentrations of the complexes (ranging from 0.01 to 50 μM). Negative controls contained culture medium with 0.1% (v/v) DMSO, and positive controls contained 0.4 μM Dox.
(§3) After an additional 48 h of incubation under the same conditions, cellular viability was assessed using the CellTiter 96 Aqueous One Solution Cell Proliferation Assay kit (Promega, Madison, USA). Metabolically active cells contain mitochondrial dehydrogenases that can reduce 3-(4,5-dimethylthiazol-2-yl)-5-(3-carboxymethoxyphenyl)-2-(4-sulfophenyl)-2H-tetrazolium, the inner salt (MTS) to formazan. The absorbance of formazan, measured at 490 nm in a microplate reader (Tecan Infinite M200, Tecan, Männedorf, Switzerland), is directly proportional to the number of viable cells.[104]
(§4) The cell viability versus concentration graphics were analyzed using Prism 8 software (GraphPad) to determine the half-maximal inhibitory concentration (IC50) of each complex for the respective cell line. Additionally, the selective index (SI) for each complex was calculated by dividing the IC50 of human fibroblasts by the IC50 values of the tested cancer cell lines.

HCT116-DoxR cells = assay: ROS production (H2DCF-DA, flow cytometry); conditions: 48 h; complexes at IC50, Dox 6 μM, Cis 5 μM
Description: The literature widely describes the relationship between the induction of these types of programmed cell death and the production of reactive oxygen species (ROS).[79]−[81] ROS can arise from endogenous or exogenous sources and play a role in carcinogenesis and tumor development, causing DNA damage.[81],[82] The accumulation of high ROS levels results in oxidative stress in cancer cells, a condition that can be exploited by surpassing the intrinsic antioxidant capacity of tumor cells as a targeted therapeutic approach.[75] It is known that Cu(II) complexes induce ROS production.[38] In this regard, the production of reactive oxygen species was quantified in HCT116-DoxR cells using the 2′,7′-dichlorodihydrofluorescein diacetate (H2DCF-DA) probe, which is rapidly oxidized in the presence of ROS, generating the compound 2′,7′-dichlorodihydrofluorescein (DCF), whose fluorescence can be detected by flow cytometry.[71] The fluorescence intensity is directly proportional to the amount of intracellular ROS. […] TBHP is a widely used organic peroxide in oxidative stress studies as it activates caspase-mediated apoptosis and ROS production.[83]
The quantification of reactive oxygen species (ROS) production was performed using the probe dichlorofluorescein diacetate (H2DCF-DA) (molecular probes: reactive oxygen species (ROS) detection reagents, Invitrogen, USA). Briefly, HCT116-DoxR cells were seeded in six-well plates at a density of 1 × 10^5 cells/mL and incubated for 24 h under the conditions mentioned before. After the incubation period, the medium was replaced with fresh medium containing the tested copper complexes at their IC50 concentrations. 0.1% (v/v) DMSO solution was used as the negative control, and 6 μM Dox, 5 μM Cis, and 42 μM Tertbutyl Hydroperoxide (TBHP) were used as positive controls. The cells were incubated again under the same conditions mentioned above for 48 h. Later, the culture medium was removed, cells were washed with PBS 1× and TrypLE Express to detach them and then they were washed again with PBS 1×. After that, cells were incubated in a solution of 10 μM H2DCF-DA in PBS 1x for 20 min at 37 °C. Subsequently, the samples were analyzed by the Attune Acoustic Focusing Flow Cytometer (Life Technologies, Carlsbad, USA), and the obtained data were processed by the respective software (Attune Cytometric software).

[2] = system: HCT116-DoxR cells (doxorubicin resistant colorectal carcinoma); assay: MTS cell viability assay, HCT116-DoxR 2D; conditions: for IC50: 48 h of exposure, MTS, relative IC50, mean + SEM, read-out: IC50 HCT116-DoxR (2D); for SI HCT116-DoxR: ratio IC50 fibroblasts / IC50 HCT116-DoxR
Procedure: as §1, §2, §3, §4

[3] = system: primary dermal fibroblasts; assay: Cell migration (wound healing) assay; conditions: 24 h; complexes at IC50, Dox 6 μM; DMSO control 100%
Procedure: Cellular migration is the individual movement of cells from one location to another.[96] This migratory process is an integral part of both the metastatic process and wound healing.[54] […] The in vitro wound healing assay is highly used to understand how the complexes affect cellular migration by measuring the closure of a gap previously created in the cell culture plate. […] Additionally, cells were subjected to the vehicle control of 0.1% DMSO and the positive control of Dox (6 μM), and the percentage of remission/regeneration was calculated (Figure 18).
Fibroblasts were seeded in 24-well plates at a cell density of 4 × 10^5 cells/mL. The plates were incubated for 24 h under the same conditions described before until a confluent cell monolayer was obtained. […] The cells were incubated at 37 °C for 48 h. The plates were photographed under an inverted microscope (Nikon TMS, Nikon Instruments, Tokyo, Japan) at 4× magnification (immediately after exposure to the complexes (0 h), 24, and 48 h following exposure).

SMILES | IC50 [1] [µM] | ROS production higher than DMSO control (HCT116-DoxR cells) [×] | SI HCT116 [1] | IC50 [2] [µM] | SI HCT116-DoxR [2] | percentage of remission/regeneration of the wound [3] | IC50 ([1]; Homo sapiens, HCT-116) [µM] | IC50 ([2]; Homo sapiens) [µM]
N.N.[Cl][Pt][Cl] [Cisplatin] | 15.6 ± 5.3 | 2.2 | – | – | – | – | – | –
[Cl][Cu-3]12([Cl])[n+]3ccccc3-c3cc(-c4cccc5ccccc45)cc([n+]31)-c1cccc[n+]12 [Cu1a] | 0.28 ± 0.03 | 1.42 | 33.1 | 0.24 ± 0.02 | 38.6 | approximately 66% | – | –
[Cl][Cu-3]12([Cl])[n+]3ccccc3-c3cc(-c4ccc5ccccc5c4)cc([n+]31)-c1cccc[n+]12 [Cu1b] | 0.21 ± 0.05 | 1.48 | 63.3 | 0.29 ± 0.02 | 45.9 | 69% | – | –
COc1cccc2c1C(=O)c1c(O)c3c(c(O)c1C2=O)C[C@@](O)(C(=O)CO)C[C@@H]3O[C@H]1C[C@H](N)[C@H](O)[C@H](C)O1 [Doxorubicin] | – | 1.8 | – | – | – | 68% | 0.5 ± 0.1 | > 6
